Test system: Mus musculus
Experiment: Compound was evaluated in vivo for Pharmacology response in the mouse model Spontaneous Activity
Assay type: functional

Question: With `CCCCCc1cc(O)c2c(c1)OC(C)(C)[C@@H]1CCC(C)=C[C@@H]21` [DRONABINOL] as the compound, how does the ED50 read?
Answer: 2.9 µmol/kg

— ChEMBL document CHEMBL1129053, “Synthesis and pharmacology of a very potent cannabinoid lacking a phenolic hydroxyl with high affinity for the CB2 receptor” (J Med Chem, 1996)
